Where two headings read alike, the source gives them in different places. Where a SMILES comes first, the peptide text is derived from it. The star is where a group is joined. Cbz = O=C(OCc1ccccc1)*
Columns and labels:
[1] = tested on: latently HIV-1 infected CA5 T cells; conditions: for priming effect on HIV-1 reactivation by sub-optimal dose of HRF: pretreatment with increasing concentrations, then sub-optimal HRF
Method: CA5 T cells were pretreated with increasing concentrations of dactinomycin (DM) (FIG. 11A), the DNA intercalator daunorubicin (DR) (FIG. 11B), or the transcription inhibitors DRB (FIG. 11 C) and α-amanitin (FIG. 11D) (concentrations indicated). The cells were then left unstimulated (white circles) or activated with a sub-optimal concentration of HRF (black circles). Reactivation levels were determined as the percentage of GFP-positive cells 24 hours after stimulation. Viability of the cells correlates with the size of the symbol (size range adjusted to 5-95%).
Infection levels in the cell cultures were monitored by flow cytometric analysis of EGFP expression. Flow cytometric analysis was performed on a GUAVA EasyCyte (Millipore; Billerica, Mass.), or a LSRII (Becton & Dickinson; Franklin Lakes, N.J.).
Bacteria from various sources were isolated on TSA II agar plates containing 5% sheep blood. Bacterial isolates were then grown in RPMI 1640 medium supplemented with 10% FBS. After two days of incubation at 37° C. bacteria were pelleted and resuspended in RPMI medium to an optical density (OD600) of 8, aliquoted and frozen at −80° C. Unless otherwise indicated, Massilia timonae was grown in RPMI 1640 medium supplemented with 10% FBS. Typically, medium was inoculated with Massilia timonae from frozen stocks to an OD600 of 0.01. After 48 hours at 37° C., the culture was centrifuged at 3200 g to separate bacteria from the culture medium. Bacteria were resuspended in fresh medium to an OD600 of 8 and frozen to be used as references and stock cultures. The supernatant was then centrifuged at 10,000 g for 20 minutes and sterilized by passage through an 0.2 μm PVDF filter with low protein binding ability. HRF activity was determined by its ability to reactivate latent HIV-1 infection in CA5 cells. Only supernatants of which 6 μl reactivated infection in at least 60% of CA5 cells were used to study HRF properties.
(§1) Infection levels in the cell cultures were monitored by flow cytometric (FCM) analysis of GFP expression. FCM analysis was performed on a GUAVA EasyCyte (GUAVA Technologies, Inc.; Millipore; Billerica, Mass.) and a BD FACSCalibur or a LSR11 (Becton & Dickinson; Franklin Lakes, N.J.). Cell sorting experiments were performed using a FACSAria™ Flow Cytometer (Becton&Dickinson). Data analysis was performed using either CellQuest (Becton&Dickinson) or GUAVA Express (GUAVA Technologies, Inc.).
To identify the optimal concentration of dactinomycin, CA5 T cells were pretreated with increasing concentrations of dactinomycin (0.0001 and 1 μg/ml), and then left untreated or stimulated with a sub-optimal concentration of HRF or TNF-α. […] Twenty four hours after activator addition, levels of HIV-1 reactivation were determined as the percentage of GFP-positive cells using flow cytometric analysis, which allowed for the simultaneous determination of cell viability.

[2] = tested on: latently HIV-1 infected J89GFP T cells; assay: HIV-1 reactivation in latently HIV-1 infected J89GFP T cells (flow cytometry / HTS); format: cell-based; conditions: 10 ng/ml PMA, three J89GFP populations
Method: as §1

[3] = tested on: HIV-1 LTR (integrated LTR-EGFP construct, NOMI cells); assay: Tat-independent activation of integrated LTR-GFP construct in NOMI reporter T cells; format: cell-based; conditions: 24 hours
Method: (§2) FIGS. 6A-6C show HRF triggers suboptimal functional induction of NF-κB dependent gene expression. […] The HIV-1 reactivating kinetics were determined by stimulating CA5 T cells with optimal concentrations of HRF, phorbol 12-myristate 13-acetate (PMA) and tumor necrosis factor-α (TNF-α) and analyzing HIV-1 reactivation as a function of EGFP-expression over a period of 48 hours. Data for all agents are depicted as the percentage of EGFP-positive cells in the total cell population. […] To test the ability of HRF to mediate Tat-independent activation of the HIV-1 LTR, NOMI cells (HIV-1 reporter cell line with an integrated LTR-EGFP construct) were stimulated with increasing concentrations of PMA (0.01-10 ng/ml), TNF-α (0.003-30 μg/ml) and HRF supernatant (0.3-100 μl). The level of LTR-induction was then measured as EGFP-expression detectable after 24 hours as determined by flow cytometric analysis. Arrows indicate the concentrations at which the respective stimulus would have triggered full HIV-1 reactivation in the latently HIV-1 infected CA5 T cell line. […] 293T cells were transfected with several NF-κB dependent promoter constructs and then stimulated with either TNF-α (10 μg/ml) or HRF (25 μl). Promoter induction was measured as total EGFP expression. […]

[4] = tested on: latently HIV-2 infected J2574 reporter T cells (HIV-2 7312A); assay: Reactivation of latent HIV-2 infection in J2574 reporter T cells; format: cell-based; conditions: GFP-negative sorted population
Method: J2574 reporter T cells were infected with HIV-2 7312A and a latently infected cell population was established (>90% latently infected cells). The cell population was then pretreated with varying concentrations of dactinomycin (0-8 ng/ml) for 18 hours and then either left untreated (C) or stimulated with a sub-optimal dose of HRF, which by itself triggered reactivation in 10% of the cells. Reactivation levels were determined 24 hours post HRF activation by quantifying the level of GFP-positive cells using flow cytometric analysis.
J2574 reporter T cells were generated by retrovirally transducing Jurkat T cells with a HIV-1 reporter construct (p2574) in which the HIV-1 LTR controls the expression of GFP. The HIV-1 LTR and the GFP gene are separated by a 2,500 base pair (bp) spacer element. Lentiviral particles were produced by transfecting 293T cells with p2574 and supplying gag-pol-rev-tat in trans. VSV-G was used as viral envelope protein. Following lentiviral transduction of Jurkat cells, all cells that spontaneously expressed GFP were removed by cell sorting. The GFP-negative population was then activated with PMA to identify all cells that would harbor an inducible LTR-GFP-LTR integration event. Cells that turned GFP-positive following stimulation were again selected by cell sorting. GFP expression in this population ceased after a few days leaving a population of GFP-negative reporter cells. The amount of founder cells for this population is calculated to represent >50,000 individual integration events.
To determine the ability of dactinomycin to prime a latent HIV-2 infection, a latently HIV-2 infected population of GFP reporter T cells were tested. Briefly, to create the latent HIV-2 infected population, J2574 reporter cells were infected with HIV-2 7312A and a population of latently HIV-2 infected cells was generated by removing the actively infected, GFP-positive cells using a fluorescence activated cell sorter.

[5] = tested on: chronically actively infected T cell lines JNLG#35 and JNLG#44; assay: Active HIV-1 transcription in chronically actively infected GFP-reporter T cells (GFP MCF); format: cell-based; conditions: 48 hours after addition
Method: Changes in HIV-1 transcription levels were determined after 48 hours by measuring GFP mean channel fluorescence intensity (GFP MCF). GFP MCF was plotted over the drug concentration for dactinomycin (FIG. 12A), the DNA intercalators daunorubicin (DM) (FIG. 12B) and rebeccamycin (RM) (FIG. 12C), as well as the transcription inhibitors ICRF-193 (FIG. 12D), DRB (FIG. 12E) and α-amanitin (FIG. 12F). The size of symbols indicates the respective cell viability in the sample (size range adjusted to 5-95%).
For this purpose, each of the compounds was titrated over a relevant range of concentrations on two chronically actively infected T cell lines (JNLG#35 and JNLG#44). These clonal cell lines are infected with a GFP-reporter virus. Forty eight hours after addition of the compounds, the effect of each compound on HIV-1 transcription was determined by flow cytometric analysis quantifying GFP mean channel fluorescence intensity (MCF).

[6] = tested on: NF-κB dependent promoters in 293T cells; assay: NF-κB dependent promoter GFP constructs transfected into 293T cells; format: cell-based
Method: as §2

CC[C@H](C)[C@@H]1NC(=O)CNC(=O)[C@@H]2Cc3c([nH]c4cc(O)ccc34)[S+]([O-])C[C@@H](NC(=O)CNC1=O)C(=O)N[C@@H](CC(N)=O)C(=O)N1C[C@H](O)C[C@H]1C(=O)N[C@@H]([C@@H](C)[C@@H](O)CO)C(=O)N2 (stereo in doubt) [α-amanitin]
cytotoxicity at higher concentrations [1]: high levels of cytotoxicity | effect of higher concentrations on HIV-1 reactivation triggered by HRF or TNF-α [1]: inhibit HIV-1 reactivation | priming effect on HIV-1 reactivation by sub-optimal dose of HRF [1]: None of the inhibitors exerted a priming effect | priming effect on HIV-1 reactivation by sub-optimal dose of HRF ([1]; listed as α-aminitin): did not exhibit any priming effect

OC[C@H]1O[C@@H](n2cnc3cc(Cl)c(Cl)cc32)[C@H](O)[C@@H]1O [DRB, 5,6 dichloro-beta-D-ribofuranosylbenzimidazole]
cytotoxicity at higher concentrations [1]: high levels of cytotoxicity | effect of higher concentrations on HIV-1 reactivation triggered by HRF or TNF-α [1]: inhibit HIV-1 reactivation

CC(=O)NCCCCCCNC(C)=O [HMBA, Hexamethylene bisacetamide]
reactivation levels ([1]; HMBA alone, compared to TNF-α, PMA or HRF): < 40% | cells with reactivated HIV-1 ([1]; HMBA at 3 mM): 15% | cells with reactivated HIV-1 ([1]; HMBA at 9 mM): 35% | compound toxicity ([1]; HMBA at 9 mM): onset of compound toxicity | reactivation ([1]; combination of HMBA and TNF-α): 81% | reactivation ([1]; optimal dose of HMBA alone): 27% | priming of latent HIV-1 infection for reactivation by sub-optimal TNF-α ([1]; sub-toxic concentrations): relatively potent at priming latent HIV-1 infection for full reactivation | optimal concentration as HIV-1 priming agent, prior to onset of drug mediated toxicities ([1]; titration on CA5 T cells): 3 to 10 mM

CC(C)C[C@@H](C=O)NC(=O)[C@H](CC(C)C)NC(=O)[C@H](CC(C)C)NC(=O)OCc1ccccc1 [MG132] (Cbz-Leu-Leu-Leu-aldehyde)
priming effect on HIV-1 reactivation by sub-optimal dose of HRF [1]: did not exhibit any priming effect

CCCCCCCCCCCCCC(=O)O[C@@H]1[C@@H](C)[C@@]2(O)[C@@H](C=C(CO)C[C@]3(O)C(=O)C(C)=C[C@@H]23)[C@@H]2C(C)(C)[C@]12OC(C)=O [PMA, 13-phorbol-12-myristate acetate]
maximum achievable HIV-1 reactivation levels [2]: 90±3% | Tat-independent activation of integrated LTR-GFP construct (GFP expression) [3]: stimulated Tat-independent activation of the integrated LTR-GFP construct | cells latently infected as revealed by PMA stimulation [4]: > 90%

CC[C@@]1(O)C[C@H](O[C@H]2C[C@H](N(C)C)[C@H](O[C@H]3C[C@H](O)[C@H](O[C@H]4CCC(=O)[C@H](C)O4)[C@H](C)O3)[C@H](C)O2)c2c(cc3c(c2O)C(=O)c2c(O)cccc2C3=O)[C@H]1C(=O)OC [aclacinomycin]
priming effect on HIV-1 reactivation by sub-optimal dose of HRF [1]: strong priming effect

CC[C@@]1(O)C(=O)OCc2c1cc1n(c2=O)Cc2cc3ccccc3nc2-1 [camptothecin]
priming effect on HIV-1 reactivation by sub-optimal dose of HRF [1]: None of the inhibitors exerted a priming effect

COc1cccc2c1C(=O)c1c(O)c3c(c(O)c1C2=O)C[C@@](O)(C(C)=O)C[C@@H]3O[C@H]1C[C@H](N)[C@H](O)[C@H](C)O1 [daunorubicin]
effect on active HIV-1 infection / transcription (GFP MCF) [5]: boosted active HIV-1 transcription

O=C1[O][Pt]2([NH][C@@H]3CCCC[C@H]3[NH]2)[O]C1=O [oxaliplatin]
priming effect on HIV-1 reactivation by sub-optimal dose of HRF [1]: not reproduced

CO[C@H]1[C@H](O)[C@@H](O)[C@H](n2c3c(Cl)cccc3c3c4c(c5c6cccc(Cl)c6[nH]c5c32)C(=O)NC4=O)O[C@@H]1CO [rebeccamycin]
priming effect on HIV-1 reactivation by sub-optimal dose of HRF [1]: not reproduced | effect on active HIV-1 infection / transcription (GFP MCF) [5]: boosted active HIV-1 transcription

TNF-α
reactivation ([1]; sub-optimal dose of TNF-α alone): 32% | GFP expression driven by NF-κB responsive promoter constructs (IL-8, TNF-α, HIV-1 LTR, three consensus NF-κB sites) ([6]; TNF-α 10 μg/ml or HRF 25 μl): efficiently induced | GFP expression of construct under murine stem cell virus LTR (no NF-κB responsive element) ([6]; control construct): Neither TNF-α nor HRF influenced GFP expression | Tat-independent activation of integrated LTR-GFP construct (GFP expression) [3]: stimulated Tat-independent activation of the integrated LTR-GFP construct
